Read-outs that look alike come from different tables or passages of the source.
How the values were obtained:
[1] = tested on: FADD−/− Jurkat cells; assay: Inhibition of TNF-induced programmed necrosis of FADD deficient Jurkat cells (Cell Titer-Glo viability); assay type: cell-based; conditions: for EC50: Homo sapiens, Jurkat
In short: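 FADD-deficient human Jurkat T leukemia cells in log phase were adjusted to 2.5×10^5/mL and plated at 40 μl per well in 384-well plates. Compounds were added, with SM164 (50 nM) where used, for a 1 h pretreatment at 37° C. TNFα (50 ng/mL) was then added, and cells were incubated 14 h at 37° C, 5% CO2. Viability was read as ATP luminescence with Cell Titer-Glo after 30 min at room temperature, with unstimulated DMSO wells set as 100%. EC50 values were calculated in Prism Graphpad.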

[2] = tested on: L929 cells; assay: Inhibition of TNF-induced programmed necrosis of L929 cells (Cell Titer-Glo viability); assay type: cell-based, mouse; conditions: for EC50: Mus musculus, L929, L929 cells
In short: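 Mouse L929 fibroblasts were diluted to 6.25×10^4/ml, plated at 40 μl per well in 384-well plates, and incubated 12 hours at 37° C., 5% CO2. Compounds were added, with SM164 (500 nM) for the combination arm, and pretreated 1 h before TNFα (500 ng/mL). After 14 h, viability was read by Cell Titer-Glo luminescence against unstimulated DMSO controls, and EC50 values were fitted in Prism Graphpad.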

[3] = tested on: RIPK1^K612R/K612R mutant mice; assay: Digestive system inflammation in RIPK1 K612R/K612R mutant mice; assay type: in vivo; conditions: gavage 25 mg/kg, control Nec-1s 50 mg/kg
Excerpt: The adopted biological test scheme was: RIPK1^K612R/K612R mutant mice were used as model mice to test the effect of representative compound QY-10-40 or QY-13-19 on spontaneous intestinal inflammation.
K612R mutation leads to decreased in intracellular RIPK1 level but abnormal activation, making it sensitive to programmed necrosis and caspase-1 activation, and responding to TLRs signaling. RIPK1^K612R/K612R mice will appear responses such as age-dependent reduced RIPK1 expression and abnormal activation, spontaneous intestinal inflammation and splenomegaly.
Methods: The compounds to be tested were dissolved in 0.5% carboxymethyl cellulose according to the required concentration one day in advance, and sonicated overnight. Mice were gavaged in a volume of 0.1 ml/10 g body weight. Body weight was measured three times a week, and samples were collected at the end of the experiment. The effect of the compounds was calculated using Prism Graphpad statistical software.

[4] = tested on: MEFs cells expressing RIPK1 WT; assay: TSZ-induced programmed necrosis in MEFs cells expressing RIPK1 WT; assay type: cell-based, mouse; conditions: 10 μM
Excerpt: (§1) The adopted biological test protocol was: the effect of compounds on programmed necrosis in MEFs cells (mouse embryonic fibroblasts) with RIPK1 S161E mutation.
(§2) In order to verify the inhibitory effect of the compound of the present invention on the highly activated RIPK1 kinase at the cellular level, MEFs cells stably expressing RIPK1 S161E (simulating the activation state of RIPK1 after phosphorylation) were selected, TNFα-SM164-zVAD (Caspase inhibitor for inhibiting apoptosis) (TSZ) was used in combination to induce programmed cell necrosis, and cell viability was calculated by detecting chemiluminescence values, thereby obtaining the biological activity of the compound in inhibiting programmed necrosis.
(§3) Methods: MEFs cells replenished by RIPK1: WT-RIPK1, S161A-RIPK1 and S161E-RIPK1 were replenished in RIPK1 stable knockout cells respectively. After stable expression and being cultured to logarithmic growth phase, the cells were collected, and centrifuged at 1000 rpm for 5 min. The supernatant was discarded. Cell concentration was adjusted to 5×10^4/mL, and cells were inoculated into 384-well plates with 40 μL per well. Cell culture medium diluted SM164 (100 nM), zVAD (50 μM) and compound, each […], were added to the corresponding wells. After pretreatment at 37° C. for 1 h, 5 μL of cell culture medium diluted TNF (50 ng/mL) was added to each well in the stimulated group and 5 μL of culture medium was added to the control group. […] The unstimulated DMSO control wells (Ctrl) were taken as 100% cell viability. EC50 values of the compounds were calculated using Prism Graphpad statistical software.

[5] = tested on: MEFs cells expressing RIPK1 S161E mutant; assay: TSZ-induced programmed necrosis in MEFs cells expressing RIPK1 S161E mutant; assay type: cell-based, mouse; conditions: 10 μM
Excerpt: as §1, §2, §3

[6] = 14 h, FADD−/− Jurkat cells, stimulated with TNFα + SM164, read-out: EC50 (μM) FADD−/− Jurkat cells (human) TNFα + SM164
[7] = stimulated with TNFα + SM164, read-out: EC50 (μM) L929 cells (mouse) TNFα + SM164
[8] = stimulated with TNFα alone, read-out: EC50 (μM) L929 cells (mouse) TNFα

Row | Compound | EC50 [1, 6] [nM] | EC50 ([1]; FADD−/− Jurkat cells, stimulated with TNFα alone, read-out: EC50 (μM) FADD−/− Jurkat cells (human) TNFα) [nM] | activity of inhibition of programmed necrosis compared with GSK2982772 ([1]; human FADD-deficient Jurkat cells, TNFα alone or in combination with SM164) | EC50 [2, 7] [µM] | EC50 [2, 8] [µM] | effect on body weight and spleen coefficient [3] | EC50 ([1]; read-out: EC50 (μM) FADD−/− Jurkat cells (human) TNFα) [nM] | inhibition of programmed necrosis (in words) ([2]; mouse-derived L929 cells) | inhibition of programmed necrosis [4] | inhibition of programmed necrosis [5]
1 | Cn1nnc(C(=O)NCc2ccc(-n3cnc4c(N)ncnc43)cc2)c1Cc1ccccc1 [QY-13-19, N-(4-(6-amino-9H-purin-9-yl)benzyl)-5-benzyl-1-methyl-1H-1,2,3-triazole-4-carboxamide] | 0.516 | 0.0557 | stronger activity | 0.00309 | 0.00146 | can inhibit the effect of the digestive system inflammation |  |  |  | 
2 | CN1C(=O)[C@@H](NC(=O)c2n[nH]c(Cc3ccccc3)n2)COc2ccccc21 [GSK2982772, reference compound] | 4 |  |  | > 10 | 2.51 |  | 0.68 | almost inactive | can effectively inhibit the occurrence of programmed necrosis | only shows weak inhibition

From patent US20230331707A1, “PROGRAMMED CELL NECROSIS INHIBITOR, PREPARATION METHOD THEREFOR, AND USE THEREOF” (Shanghai Institute of Organic Chemistry, Chinese Academy of …, priority 2020, published 2023)
